This assay has as its system spinal nerve ligation model for neuropathic pain in rats. The assay is described as follows: Spinal nerve ligation (Chung) model of neuropathic pain, Von Frey test. The conditions noted are these: 150 mg/kg IP once daily from study day 14 to 21; 2 hours post-treatment on study days 14 and 21; male SD rats. It counts as in vivo. An excerpt: Experimental animals were male SD rats with a starting weight of 230-250 grams. Total number of animals were n=90 for surgery and n=60 after selection. The animals were caged in groups of 3 in a temperature and humidity controlled area. They were maintained on a 12 hr light/dark cycle and had ad libitum access to food and water.
Neuropathic pain inducement was done by following principles of Chung induced model. The SD rats were anesthetized using ketamine/xylazine sodium. The rats were shaved and placed in prone position for surgery. The L5-L6 spinal nerves were surgically litigated. The rats were returned to their cages for recuperation and recovery under comfortable warm conditions using heat lamps.
After seven days of surgery a pre selection was performed. Animals that indicate signs of post operative pain were to be selected to proceed. Pain is detected by observing when one or more of the criteria are met as follows. Licking of the operated paw, accompanied by gentle biting or pulling on the nails with the mouth; placing the leg in the air; bearing weight on the side contra-lateral to the nerve injury; deformities of the hind paw and abnormal posture and walking; weakness of the left hind paw. […] However, the animal must be able to move its leg to ensure that the L4 spinal nerve is intact. If the animal cannot move its leg, it was excluded from the study. […]

Each structure is given as a SMILES string.

In the case of `CC(OC(=O)CCCC[C@@H]1CCSS1)OC(=O)NC(C)C(C)COC(=O)c1ccccc1` (stereo partly shown) [final compound of formula 1], the “efficacy as reflected in the parameters of mechanical allodynia (Von Frey)” value was “effective”.
